Assay results published in ChEMBL document CHEMBL4270528, “Design, synthesis, molecular modeling and anti-proliferative evaluation of novel quinoxaline derivatives as potential DNA intercalators and topoisomerase II inhibitors” (Eur J Med Chem, 2018).
pIC50: −log10 of the molar value. The source made the active and inactive calls. The calls are words filed in the database; no cut-off is given here.

Tests used:
HepG2 = experiment: Antiproliferative activity against human HepG2 cells after 48 hrs by neutral red assay; assay type: functional, cell-based; settings: HepG2, 48 h
HEp-2 = experiment: Antiproliferative activity against human Hep2 cells after 48 hrs by neutral red assay; assay type: functional, cell-based; settings: HEp-2, 48 h
Caco-2 [1] = experiment: Antiproliferative activity against human Caco2 cells after 48 hrs by neutral red assay; assay type: functional, cell-based; settings: Caco-2, 48 h
[2] = target: T1, DNA topoisomerase 2-alpha (Homo sapiens, UniProt P11388); experiment: Inhibition of human topoisomerase 2 using supercoiled pHOT1 DNA as substrate after 30 mins by agarose gel electrophoresis
T1 sequence (P11388 whole entry): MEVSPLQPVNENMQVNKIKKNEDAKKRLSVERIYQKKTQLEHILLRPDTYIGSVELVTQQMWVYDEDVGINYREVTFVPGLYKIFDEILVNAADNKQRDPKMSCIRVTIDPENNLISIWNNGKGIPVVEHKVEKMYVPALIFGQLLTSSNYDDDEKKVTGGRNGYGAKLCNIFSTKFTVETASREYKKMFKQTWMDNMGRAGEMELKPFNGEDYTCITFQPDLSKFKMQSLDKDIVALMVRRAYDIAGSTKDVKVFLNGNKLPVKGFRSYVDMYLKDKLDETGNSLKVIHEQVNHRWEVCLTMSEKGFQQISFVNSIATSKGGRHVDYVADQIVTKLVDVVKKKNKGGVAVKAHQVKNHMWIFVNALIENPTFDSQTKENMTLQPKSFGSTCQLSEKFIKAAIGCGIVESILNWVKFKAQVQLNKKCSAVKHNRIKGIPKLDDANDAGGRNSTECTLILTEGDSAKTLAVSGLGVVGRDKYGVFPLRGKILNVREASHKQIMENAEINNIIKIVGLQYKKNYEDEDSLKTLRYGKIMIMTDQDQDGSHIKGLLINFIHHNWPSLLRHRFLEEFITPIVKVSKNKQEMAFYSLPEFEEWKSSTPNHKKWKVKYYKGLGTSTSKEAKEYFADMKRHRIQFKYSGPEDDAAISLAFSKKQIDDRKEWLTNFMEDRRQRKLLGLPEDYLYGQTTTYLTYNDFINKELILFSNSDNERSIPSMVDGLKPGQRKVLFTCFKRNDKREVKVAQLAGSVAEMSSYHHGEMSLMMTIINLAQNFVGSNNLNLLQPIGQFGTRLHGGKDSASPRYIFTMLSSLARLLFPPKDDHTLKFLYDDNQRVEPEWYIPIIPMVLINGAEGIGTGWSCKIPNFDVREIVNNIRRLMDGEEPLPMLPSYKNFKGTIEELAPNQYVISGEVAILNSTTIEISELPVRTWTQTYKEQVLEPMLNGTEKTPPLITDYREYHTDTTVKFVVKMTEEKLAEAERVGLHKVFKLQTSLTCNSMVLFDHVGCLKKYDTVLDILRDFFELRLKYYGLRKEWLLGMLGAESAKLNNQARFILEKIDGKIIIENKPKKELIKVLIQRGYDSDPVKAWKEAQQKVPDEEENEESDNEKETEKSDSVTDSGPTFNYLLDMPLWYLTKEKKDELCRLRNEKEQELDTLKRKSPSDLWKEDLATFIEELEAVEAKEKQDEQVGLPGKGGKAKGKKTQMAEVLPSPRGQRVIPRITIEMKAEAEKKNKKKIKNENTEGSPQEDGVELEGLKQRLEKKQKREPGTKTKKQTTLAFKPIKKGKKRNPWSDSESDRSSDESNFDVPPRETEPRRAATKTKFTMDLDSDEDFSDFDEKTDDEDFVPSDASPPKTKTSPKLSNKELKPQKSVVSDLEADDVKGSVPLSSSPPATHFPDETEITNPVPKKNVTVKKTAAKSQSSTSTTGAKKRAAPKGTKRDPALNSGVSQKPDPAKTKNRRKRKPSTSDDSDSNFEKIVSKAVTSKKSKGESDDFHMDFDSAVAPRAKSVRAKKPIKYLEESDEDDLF

Calf thymus DNA = experiment: Inhibition of methyl green binding to calf thymus DNA incubated for 24 hrs in dark by spectrophotometric method; assay type: nucleic-acid assay, Bos taurus
[3] = target: T1, DNA topoisomerase 2-alpha; experiment: Inhibition of recombinant human topoisomerase 2 assessed as reduction in relaxation of supercoiled pBS-SK(+) DNA at 10 uM after 30 mins by agarose gel electrophoresis
[4] = target: T1, DNA topoisomerase 2-alpha; experiment: Inhibition of human topoisomerase 2 assessed as cleavage complex formation at 10 uM using pBS-SK(+) DNA as substrate after 60 mins by agarose gel electrophoresis
Escherichia coli = experiment: Induction of Escherichia coli bacteriophage lambda DNA intercalation assessed as inhibition of Sal 1/EcoR 1-mediated DNA cleavage after 2 hrs by agarose gel electrophoresis
[5] = target: T1, DNA topoisomerase 2-alpha; experiment: Inhibition of recombinant human topoisomerase 2 assessed as reduction in relaxation of supercoiled pBS-SK(+) DNA after 30 mins by agarose gel electrophoresis
[6] = target: T1, DNA topoisomerase 2-alpha; experiment: Inhibition of recombinant human topoisomerase 2 assessed as reduction in relaxation of supercoiled pBS-SK(+) DNA at 5 uM after 30 mins by agarose gel electrophoresis
[7] = target: T1, DNA topoisomerase 2-alpha; experiment: Inhibition of recombinant human topoisomerase 2 assessed as reduction in relaxation of supercoiled pBS-SK(+) DNA at 10 to 50 uM after 30 mins by agarose gel electrophoresis
Caco-2 [8] = experiment: Cell cycle arrest in human Caco2 cells assessed as accumulation at G0/G1 phase at 0.5 uM after 24 hrs by propidium iodide staining based flow cytometry (reference value: 53.85%); assay type: functional
Caco-2 [9] = experiment: Cell cycle arrest in human Caco2 cells assessed as accumulation at S phase at 0.5 uM after 24 hrs by propidium iodide staining based flow cytometry (reference value: 30.96%); assay type: functional
Caco-2 [10] = experiment: Cell cycle arrest in human Caco2 cells assessed as accumulation at G2/M phase at 0.5 uM after 24 hrs by propidium iodide staining based flow cytometry (reference value: 15.19%); assay type: functional
Caco-2 [11] = experiment: Induction of apoptosis in human Caco2 cells assessed as accumulation at pre-G1 phase at 0.5 uM after 24 hrs by Annexin V-FITC/propidium iodide staining based flow cytometry (reference value: 2.76%); assay type: functional
Caco-2 [12] = experiment: Induction of apoptosis in human Caco2 cells assessed as viable cells at 0.5 uM after 24 hrs by Annexin V-FITC/propidium iodide staining based flow cytometry (reference value: 96.65%); assay type: functional; settings: Caco-2, 24 h, read-out: Activity
Caco-2 [13] = experiment: Induction of apoptosis in human Caco2 cells assessed as early apoptotic cells at 0.5 uM after 24 hrs by Annexin V-FITC/propidium iodide staining based flow cytometry (reference value: 0.48%); assay type: functional
Caco-2 [14] = experiment: Induction of apoptosis in human Caco2 cells assessed as late apoptotic cells at 0.5 uM after 24 hrs by Annexin V-FITC/propidium iodide staining based flow cytometry (reference value: 0.69%); assay type: functional
Caco-2 [15] = experiment: Induction of apoptosis in human Caco2 cells assessed as necrotic cells at 0.5 uM after 24 hrs by Annexin V-FITC/propidium iodide staining based flow cytometry (reference value: 1.59%); assay type: functional
Caco-2 [16] = experiment: Down regulation of Bax mRNA expression level in human Caco2 cells by qRT-PCR method; assay type: functional, cell-based
Caco-2 [17] = experiment: Down regulation of Bec1 mRNA expression level in human Caco2 cells by qRT-PCR method; assay type: functional, cell-based
Caco-2 [18] = experiment: Down regulation of Caspase 8 mRNA expression level in human Caco2 cells by qRT-PCR method; assay type: functional, cell-based
Caco-2 [19] = experiment: Upregulation of […] mRNA expression level in human Caco2 cells by qRT-PCR method; assay type: functional, cell-based
Caco-2 [20] = experiment: Down regulation of Cyclin B mRNA expression level in human Caco2 cells by qRT-PCR method; assay type: functional, cell-based
Caco-2 [21] = experiment: Down regulation of Bcl-2 mRNA expression level in human Caco2 cells by qRT-PCR method; assay type: functional, cell-based
[22] = target: T1, DNA topoisomerase 2-alpha; experiment: Inhibition of human topoisomerase 2 assessed as cleavage complex formation at 25 to 50 uM using pBS-SK(+) DNA as substrate after 60 mins by agarose gel electrophoresis

SMILES	pIC50 (HepG2)	pIC50 (HEp-2)	pIC50 (Caco-2 [1]; read-out: IC50)	pIC50 [2]	pIC50 (Calf thymus DNA)	DNA intercalation activity (qualitative) (Escherichia coli)	also measured
O=C(NNc1nc2ccccc2n2cnnc12)NC1CCCCC1	5.64	6.49	6.01	5.91	4.55		
COc1cc(NS(C)(=O)=O)ccc1Nc1c2ccccc2nc2ccccc12							inhibition [3]: Active; inhibition [4]: Active
S=C(NNc1nc2ccccc2n2cnnc12)Nc1ccccc1	6.19	7.00	5.89	5.53	4.46	Active	
c1ccc(CNc2nc3ccccc3n3cnnc23)cc1	5.53	4.39	5.35				
COc1cccc(NC(=O)CSc2nnc3c4nncn4c4ccccc4n23)c1	6.30	6.54	6.41	6.07	4.41	Active	inhibition [5]: Dose-dependent effect; inhibition [6]: inactive; inhibition [7]: Active; Activity (Caco-2 [8]): 44.23%; Activity (Caco-2 [9]): 15.19%; Activity (Caco-2 [10]): 40.58%; Activity (Caco-2 [11]): 13.99%; viability at 0.5 µM (Caco-2 [12]): 84.5%; Activity (Caco-2 [13]): 3.91%; Activity (Caco-2 [14]): 7.5%; Activity (Caco-2 [15]): 2.58%; Activity (Caco-2 [16]): Active; Activity (Caco-2 [17]): Active; Activity (Caco-2 [18]): Active; Activity (Caco-2 [19]): Active; Activity (Caco-2 [20]): Active; Activity (Caco-2 [21]): Active; inhibition [22]: inactive
CSc1nnc2c3nncn3c3ccccc3n12	4.64	5.24	< 4.30				
O=C(CSc1nnc2c3nncn3c3ccccc3n12)Nc1ccc(F)cc1	6.12	6.30	6.10	6.03	4.36	Active	
CCOc1nc2ccccc2n2cnnc12	5.00	5.38	5.19				
Clc1cccc(Cl)c1/C=N/Nc1nc2ccccc2n2cnnc12	7.22	6.28	5.24	5.53	4.40	Active	
Clc1ccccc1/C=N/Nc1nc2ccccc2n2cnnc12	5.00	6.92	5.94	5.72	4.28	Active	
CCCNc1nc2ccccc2n2cnnc12	5.97	5.63	5.52				
c1ccc(CSc2nnc3c4nncn4c4ccccc4n23)cc1	< 4.30	5.27	4.98				
COc1nc2ccccc2n2cnnc12	5.09	5.40	5.09				
O=C(NNc1nc2ccccc2n2cnnc12)Nc1ccccc1	6.15	6.25	5.84	5.92	4.51		
CCCCNc1nc2ccccc2n2cnnc12	6.08	8.00	5.65	5.71	4.31	Active	
OCCNc1nc2ccccc2n2cnnc12	5.50	6.85	5.58				
COC(=O)CSc1nnc2c3nncn3c3ccccc3n12	5.03	5.51	5.20				
c1ccc2c(c1)nc(NC1CCCCC1)c1nncn12	6.20	6.04	6.34	6.17	4.40	Active	
CCOC(=O)CCCSc1nnc2c3nncn3c3ccccc3n12	5.24	< 4.30	4.83				
CCOC(=O)CSc1nnc2c3nncn3c3ccccc3n12	6.09	6.44	5.85	5.67	4.20		
Sc1nnc2c3nncn3c3ccccc3n12	6.25	6.11	6.24	5.97	4.53	Active	
COc1ccccc1/C=N/Nc1nc2ccccc2n2cnnc12	5.61	5.66	5.42				
CCNC(=S)NNc1nc2ccccc2n2cnnc12	5.72	5.63	5.46	5.27			
COc1cccc2c1C(=O)c1c(O)c3c(c(O)c1C2=O)C[C@@](O)(C(=O)CO)C[C@@H]3O[C@H]1C[C@H](N)[C@H](O)[C@H](C)O1 [DOXORUBICIN]	6.21	6.29		6.06	4.52	Active	pIC50 (Caco-2 [1]): 6.14
CNc1nc2ccccc2n2cnnc12	6.06	5.50	5.83	5.68	4.31	Active	
